Several values for one entry are separate records, joined by “and”; a condition that tells them apart may be missing. Equal entries are not always repeated. Each block holds one compound with its values, some of them ahead of it.
How the values were obtained:
[1] = target: T1, DRD4 (D4.4 variant) wild-type (Homo sapiens, UniProt P21917); experiment: Radioligand competition binding, [3H]-N-methylspiperone; details: DRD4; [3H]-methylspiperone (0.8-1.0 nM); read-out: Ki
T1 sequence (P21917 1-419): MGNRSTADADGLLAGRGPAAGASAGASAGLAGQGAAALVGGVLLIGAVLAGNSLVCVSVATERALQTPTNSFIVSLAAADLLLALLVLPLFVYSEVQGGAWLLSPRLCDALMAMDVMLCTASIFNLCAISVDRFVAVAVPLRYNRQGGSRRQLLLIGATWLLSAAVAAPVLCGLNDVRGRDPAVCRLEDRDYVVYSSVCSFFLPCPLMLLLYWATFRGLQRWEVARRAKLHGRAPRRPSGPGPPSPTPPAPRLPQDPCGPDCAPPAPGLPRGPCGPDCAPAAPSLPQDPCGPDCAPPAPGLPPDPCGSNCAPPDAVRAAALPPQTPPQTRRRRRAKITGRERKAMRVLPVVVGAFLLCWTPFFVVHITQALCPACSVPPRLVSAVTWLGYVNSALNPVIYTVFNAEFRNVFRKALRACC

DRD3 = DRD3 (Homo sapiens, UniProt P35462); experiment: β-arrestin2 recruitment (Tango); format: cell-based; details: DRD3; Tango; read-out: EC50 ± SEM
Chain of DRD3 (P35462 whole entry): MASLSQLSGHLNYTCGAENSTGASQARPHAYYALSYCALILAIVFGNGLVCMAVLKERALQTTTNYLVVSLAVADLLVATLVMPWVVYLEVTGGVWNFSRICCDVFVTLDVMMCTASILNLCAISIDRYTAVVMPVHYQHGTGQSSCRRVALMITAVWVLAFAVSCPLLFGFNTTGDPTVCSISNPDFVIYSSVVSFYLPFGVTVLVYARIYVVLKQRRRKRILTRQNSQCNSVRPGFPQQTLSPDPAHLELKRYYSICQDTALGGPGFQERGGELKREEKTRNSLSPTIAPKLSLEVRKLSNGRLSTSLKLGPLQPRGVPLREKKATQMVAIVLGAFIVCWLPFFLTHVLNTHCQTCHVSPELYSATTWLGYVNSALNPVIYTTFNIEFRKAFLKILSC

DRD4 (D4.4 variant) [2] = target: T2, DRD4 (D4.4 variant) (Homo sapiens, UniProt P21917); experiment: β-arrestin2 recruitment (Tango); format: cell-based; details: DRD4; Tango; read-out: EC50 ± SEM
T2 sequence (P21917 1-419): T1 sequence (P21917 1-419)

DRD3 F1063.28A = DRD3 F1063.28A (Homo sapiens, UniProt P35462, F106A); experiment: biochemical; format: binding; details: DRD3 F1063.28A; read-out: Ki
Chain of DRD3 F1063.28A (P35462 whole entry F106A): as the sequence (P35462 whole entry) above, with F106A counted along it

DRD2 (D2 long receptor) [3] = target: T3, DRD2 (D2 long receptor) (Homo sapiens, UniProt P14416); experiment: Gαi/o-mediated cAMP inhibition (GloSensor split-luciferase cAMP reporter), HEK293T; format: cell-based; details: for EC50: DRD2, agonist, Gαi/o-mediated cAMP inhibition, read-out: EC50 ± SEM; for Response, Fig_S11b dose-response: individual replicates;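 as to all read-outs here: compounds applied 15 min at room temperature, then luciferin plus 400 nM isoproterenol to raise cAMP through endogenous β2-adrenergic receptors, luminescence read 15 min later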
T3 sequence (P14416 whole entry): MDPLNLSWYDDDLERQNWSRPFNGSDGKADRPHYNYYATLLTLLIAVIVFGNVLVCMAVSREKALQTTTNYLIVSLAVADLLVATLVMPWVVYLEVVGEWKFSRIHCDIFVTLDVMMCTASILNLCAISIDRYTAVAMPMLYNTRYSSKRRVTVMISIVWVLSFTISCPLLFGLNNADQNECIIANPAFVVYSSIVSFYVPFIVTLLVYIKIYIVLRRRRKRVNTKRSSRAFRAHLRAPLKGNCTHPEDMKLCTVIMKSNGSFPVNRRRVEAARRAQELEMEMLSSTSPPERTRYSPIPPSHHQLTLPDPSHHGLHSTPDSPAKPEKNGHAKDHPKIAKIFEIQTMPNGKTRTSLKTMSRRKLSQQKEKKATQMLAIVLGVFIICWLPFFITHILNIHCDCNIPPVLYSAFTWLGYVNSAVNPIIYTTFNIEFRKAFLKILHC

DRD2 (D2 long receptor) [4] = target: T3, DRD2 (D2 long receptor); experiment: β-arrestin2 recruitment (Tango), HTLA cells; format: cell-based; details: for EC50: DRD2, β-arrestin2 recruitment (Tango), read-out: EC50 ± SEM; for Response, Fig_S11c dose-response: individual replicates; as to response, Fig S11c dose-response source data: reference of the scale not given here
DRD4 (D4.4 variant) [5] = target: T2, DRD4 (D4.4 variant); experiment: Gαi/o-mediated cAMP inhibition (GloSensor); format: cell-based; details: DRD4; agonist, cAMP inhibition; read-out: EC50 ± SEM
[6] = target: DRD2 (D2 long receptor) wild-type (Homo sapiens, UniProt P14416); experiment: Radioligand competition binding, [3H]-N-methylspiperone, HEK293T membranes; details: DRD2; [3H]-methylspiperone (0.8-1.0 nM); read-out: Ki
Chain of DRD2 (D2 long receptor) wild-type (P14416 whole entry): as above

DRD3 wild-type = DRD3 wild-type (Homo sapiens, UniProt P35462); experiment: Radioligand competition binding, [3H]-N-methylspiperone; details: for Ki: DRD3, [3H]-methylspiperone (0.8-1.0 nM), read-out: Ki
Chain of DRD3 wild-type (P35462 whole entry): as the sequence (P35462 whole entry) above

DRD2 F1103.28A = DRD2 F1103.28A (Homo sapiens, UniProt P14416, F110A); format: binding; set-up: expressed in transfected cells; host or cells: HEK293T (ATCC CRL-11268); details: DRD2 F1103.28A; for Ki: read-out: Ki
Chain of DRD2 F1103.28A (P14416 whole entry F110A): as the sequence (P14416 whole entry) above, with F110A counted along it

Structure (SMILES): CCOc1cccc2cc(C(C)NCCO)oc12 (centres unmarked) [O4LE1]
- Ki [1]: > 10 µM
- EC50 (DRD3): > 10 µM
- EC50 (DRD4 (D4.4 variant) [2]): > 10 µM
- Ki (DRD3 F1063.28A): > 10 µM
- EC50 (DRD2 (D2 long receptor) [3]): > 10 µM
- EC50 (DRD2 (D2 long receptor) [4]): > 10 µM
- EC50 (DRD4 (D4.4 variant) [5]): > 10 µM
- Ki [6]: > 10 µM
- Ki (DRD3 wild-type): > 10 µM
- Ki (DRD2 F1103.28A): > 10 µM

Structure (SMILES): CCOc1cccc2cc(C(C)NCC(C)(C)O)oc12 (racemic) [O4LE2]
- Ki [1]: > 10 µM
- EC50 (DRD3): > 10 µM
- EC50 (DRD4 (D4.4 variant) [2]): > 10 µM
- Ki (DRD3 F1063.28A): > 10 µM
- EC50 (DRD2 (D2 long receptor) [3]): > 10 µM
- EC50 (DRD2 (D2 long receptor) [4]): > 10 µM
- EC50 (DRD4 (D4.4 variant) [5]): > 10 µM
- Ki [6]: > 10 µM
- Ki (DRD3 wild-type): > 10 µM
- Ki (DRD2 F1103.28A): > 10 µM

- Ki [1]: > 10 µM
- EC50 (DRD3): > 10 µM
- EC50 (DRD4 (D4.4 variant) [2]): > 10 µM
- EC50 (DRD2 (D2 long receptor) [3]): > 10 µM
- Response, Fig_S11b dose-response (DRD2 (D2 long receptor) [3]; Log[Drug] -6): -4.6609 and -0.5921
- EC50 (DRD2 (D2 long receptor) [4]): > 10 µM
- Response, Fig_S11c dose-response (DRD2 (D2 long receptor) [4]; Log[Drug] -6.52): 3.717
- EC50 (DRD4 (D4.4 variant) [5]): > 10 µM
- Ki [6]: > 10 µM
- Ki (DRD3 wild-type): 3.47 µM
- pKi ± SEM (DRD3 wild-type; DRD3 wild-type): 5.46±0.10
- pKi ± SEM (DRD2 F1103.28A): 5.24±0.17
- Ki (DRD2 F1103.28A): 5.75 µM
Structure (SMILES): CC(NCC1(O)CCCCC1)c1cc2cccc(O)c2o1.Cl (centres unmarked) [O2LE6]
- Response, Fig_S11b dose-response (DRD2 (D2 long receptor) [3]; Log[Drug] -5): 2.57 and -6.2065 and 9.406 and 22.878 and 21.3481 and -11.9066 and 1.916
- Response, Fig_S11b dose-response (DRD2 (D2 long receptor) [3]; Log[Drug] -5.52): 6.28 and 4.868 and 17.437 and 8.981 and 7.366 and 4.306 and -2.8216 and 10.8339 and 3.867
- Response, Fig_S11b dose-response (DRD2 (D2 long receptor) [3]; Log[Drug] -6.52): -4.5336 and 10.5534 and 15.2708 and -15.8082 and -11.6836
- Response, Fig_S11b dose-response (DRD2 (D2 long receptor) [3]; Log[Drug] -7): 2.459 and 17.8523 and -17.1557 and -9.0384 and -5.1068 and -4.6609 and -7.169
- Response, Fig_S11b dose-response (DRD2 (D2 long receptor) [3]; Log[Drug] -7.52): -18.3605 and -3.0503 and 3.567 and -20.6831 and -11.3334 and 8.381 and -20.49
- Response, Fig_S11b dose-response (DRD2 (D2 long receptor) [3]; Log[Drug] -8): -13.294 and 23.168 and -7.9784 and -20.598 and -10.4409 and -9.4634 and -20.4343
- Response, Fig_S11b dose-response (DRD2 (D2 long receptor) [3]; Log[Drug] -8.52): 0.7703 and -10.5254 and -9.1135 and 3.329 and -12.6933 and -0.7512 and -34.034 and -13.4672 and -11.5164
- Response, Fig_S11b dose-response (DRD2 (D2 long receptor) [3]; Log[Drug] -9): 2.182 and 8.19 and 4.563 and -3.0886 and 6.152 and -13.6902 and -0.3134
- Response, Fig_S11b dose-response (DRD2 (D2 long receptor) [3]; Log[Drug] -9.52): -7.1755 and -21.4059 and -24.6779 and -18.9406 and -5.1068 and 6.486
- Response, Fig_S11b dose-response (DRD2 (D2 long receptor) [3]; Log[Drug] -10): -19.2464 and 38.0628 and -6.9263 and -30.0753 and -2.0262 and 6.261 and -22.9424 and -9.1198 and -15.8639
- Response, Fig_S11b dose-response (DRD2 (D2 long receptor) [3]; Log[Drug] -10.52): -15.9241 and -8.3937 and 23.898 and 3.978 and -13.6344
- Response, Fig_S11b dose-response (DRD2 (D2 long receptor) [3]; Log[Drug] -11): -21.7935 and 4.314 and -22.2642 and -20.2156 and 2.7337 and -9.1755
- Response, Fig_S11b dose-response (DRD2 (D2 long receptor) [3]; Log[Drug] -11.52): 5.117 and 27.9022 and 12.3983 and -0.5921 and -2.4314 and -6.9461
- Response, Fig_S11b dose-response (DRD2 (D2 long receptor) [3]; Log[Drug] -12): 6.64 and -0.2818 and -18.9406 and 16.0358 and 13.8258 and -18.8737 and -20.713 and -0.5921
- response, Fig_S11c dose-response source data (DRD2 (D2 long receptor) [4]; Fig_S11c, Log[Drug] -5, replicate values): 16.7808 and 14.8237 and 14.215 and 18.5342 and 14.2817 and 15.7604 and 11.4227 and 17.086 and 21.2736
- Response, Fig_S11c dose-response (DRD2 (D2 long receptor) [4]; Log[Drug] -7): 2.811 and 3.15 and 4.053 and 3 and 2.812 and 3.498 and 5.616 and 3.218 and 2.5633
- Response, Fig_S11c dose-response (DRD2 (D2 long receptor) [4]; Log[Drug] -7.52): 2.895 and 3.102 and 3.119 and 2.48 and 2.571 and 2.809 and 3.052 and 1.009 and 2.448
- Response, Fig_S11c dose-response (DRD2 (D2 long receptor) [4]; Log[Drug] -8): 2.815 and 2.652 and 3.1462 and 2.523 and 2.762 and 2.623 and 2.494 and 3.6148 and 1.539
- Response, Fig_S11c dose-response (DRD2 (D2 long receptor) [4]; Log[Drug] -8.52): 3.296 and 2.4132 and 3.209 and 2.229 and 3.453 and 2.266 and 3.066 and 1.184 and 1.383
- Response, Fig_S11c dose-response (DRD2 (D2 long receptor) [4]; Log[Drug] -9): 2.8445 and 2.312 and 2.494 and 3.046 and 2.174 and 2.343 and 1.927 and 6.732 and 6.534
- Response, Fig_S11c dose-response (DRD2 (D2 long receptor) [4]; Log[Drug] -9.52): 2.362 and 2.4976 and 2.923 and 2.359 and 2.154 and 2.345 and 3.43 and 1.364 and 3.781
- Response, Fig_S11c dose-response (DRD2 (D2 long receptor) [4]; Log[Drug] -10): 3.645 and 2.627 and 2.787 and 2.06 and 2.1828 and 2.292 and 2.6786 and 2.1344 and 1.378
- Response, Fig_S11c dose-response (DRD2 (D2 long receptor) [4]; Log[Drug] -10.52): 2.259 and 2.232 and 2.66 and 2.1982 and 2.238 and 2.169 and 4.722 and 1.378 and 2.323
- Response, Fig_S11c dose-response (DRD2 (D2 long receptor) [4]; Log[Drug] -11): 2.37 and 2.502 and 2.312 and 2.1828 (2×) and 2.084 and 1.9407 and 3.057 and 2.849
- Response, Fig_S11c dose-response (DRD2 (D2 long receptor) [4]; Log[Drug] -11.52): 2.185 and 2.208 and 2.688 and 2.5566 and 2.233 and 3.071 and 1.779 and 1.392 and 2.508
- Response, Fig_S11c dose-response (DRD2 (D2 long receptor) [4]; Log[Drug] -12): 2.133 and 2.211 and 2.421 and 5.046 and 2.173 and 2.317 and 0.6771 and 1.599 and 1.023

Source: article PMC7044277 (Nature Communications, 2020)
